The record followed here is patent publication US20250328351A1, “CARBONIC ANHYDRASE INHIBITORS AND ANTIBIOTICS AGAINST MULTIDRUG RESISTANT BACTERIA” (Purdue Research Foundation, priority 2018, published 2025).

Converted amounts (≈) assume the structure as drawn. Read-outs that look alike come from different tables or passages of the source.

Series [1] has as its system Mutant-12 of Enterococcus fecalis NR 31975. The experiment in a line: microbe, parasite or virus in culture. The class given is cell-based.
For series [2], the system named is Mutant-2 of Enterococcus fecalis NR 31975. The experiment in a line: microbe, parasite or virus in culture. In kind it is cell-based.
The test system of series [3] is Mutant-9 of Enterococcus fecalis NR 31975. The experiment in a line: microbe, parasite or virus in culture. In kind it is cell-based.
For series [4], the system named is Mutant-14 of Enterococcus fecalis NR 31975. The experiment in a line: microbe, parasite or virus in culture. The class given is cell-based.
Series [5] deals with Enterococcus fecalis Strain SF 28073 - NR31972. The experiment in a line: MIC, broth microdilution (CLSI). As to conditions: Enterococcus, TSB, read-out: MIC. The class given is cell-based. How it is done:
(§1) The minimum inhibitory concentrations (MICs) of the compounds and control drugs were determined using the broth microdilution method, according to guidelines outlined by the Clinical and Laboratory Standards Institute (CLSI). Enterococci strains were grown aerobically overnight on tryptone soya agar plates at 37° C., afterwards a bacterial solution equivalent to 0.5 McFarland standard was prepared and diluted in tryptone soy broth (TSB) to achieve a bacterial concentration of about 5×10^5 CFU/mL and seeded in 96-well well plates. Compounds and control drugs were added in the first row of the 96-well plates and serially diluted along the plates. Plates were then incubated aerobically at 37° C. for 18-20 hours. MICs reported in Table 1 are the minimum concentration of the compounds/control drugs that could inhibit completely the visual growth of the bacteria.

In series [6] the test system is Enterococcus fecalis Strain SF24413 NR31971. The experiment in a line: MIC, broth microdilution (CLSI). In kind it is cell-based. As to conditions: Enterococcus, TSB, read-out: MIC. As to the method: as §1
Series [7] has as its system Enterococcus faecium Patient #3-1 NR-31912. The series can be described thus: MIC, broth microdilution (CLSI). The class given is cell-based. As to conditions: Enterococcus faecium, TSB, read-out: MIC. As to the method: as §1
Series [8] concerns Mutant-6 of Enterococcus fecalis NR 31975. The experiment in a line: microbe, parasite or virus in culture. In kind it is cell-based.
In series [9] the test system is Mutant-8 of Enterococcus fecalis NR 31975. The series can be described thus: microbe, parasite or virus in culture. The class given is cell-based.
Series [10] concerns Caco-2 cells. The series can be described thus: In vitro cytotoxicity, MTS assay. As to conditions: concentration up to 128 μg/mL; two hours incubation. How it is done:
Method: Compounds AS005H, AS005J, AS004B, AS005K, AS005A and 005D were assayed (at concentrations of 64 and 128 μg/mL) against a human colorectal adenocarcinoma (Caco-2) cell to determine the potential toxic effect to mammalian cells in vitro. Briefly, cells were cultured in Dulbecco's Modified Eagle Medium (DMEM) supplemented with 20% fetal bovine serum (FBS), non-essential amino acids (1×), penicillin-streptomycin at 37° C. with CO2 (5%). Control cells received DMSO alone at a concentration equal to that in drug-treated cell samples. The cells were incubated with the compounds (in triplicate) in a 96-well plate at 37° C. with CO2 (5%) for two hours. The assay reagent MTS 3-(4,5-dimethylthiazol-2-yl)-5-(3-carboxymethoxyphenyl)-2-(4-sulfophenyl)-2H-tetrazolium) (Promega, Madison, WI, USA) was subsequently added and the plate was incubated for four hours. Absorbance readings (at OD490) were taken using a kinetic microplate reader (Molecular Devices, Sunnyvale, CA, USA). The quantity of viable cells after treatment with each compound was expressed as a percentage of the viability of DMSO-treated control cells (average of triplicate wells±standard deviation). The toxicity data was analyzed via a two-way ANOVA, with post hoc Dunnet's multiple comparisons test (P<0.05), utilizing GraphPad Prism 6.0 (GraphPad Software, La Jolla, CA).
Percent viable mammalian cells (measured as average absorbance ratio (test agent relative to DMSO) for cytotoxicity analysis of AS005H, AS005J, AS004B, AS005K, AS005A and 005D compounds (tested in triplicate) at 64 and 128 μg/mL against Caco-2 cells using the MTS 3-(4,5-dimethylthiazol-2-yl)-5-(3-carboxymethoxyphenyl)-2-(4-sulfophenyl)-2H-tetrazolium) assay. Dimethyl sulfoxide (DMSO) was used as a negative control to determine a baseline measurement for the cytotoxic impact of each compound. The absorbance values represent an average of a minimum of three samples analyzed for each compound. Error bars represent standard deviation values for the absorbance values. A two-way ANOVA, with post hoc Dunnet's multiple comparisons test, determined statistical difference (denoted by the asterisk) (P<0.05) between the values obtained for each compound and DMSO (negative control, used as solvent for the compounds).

Series [11] concerns Enterococcus faecium E417 - HM-965. The experiment in a line: MIC, broth microdilution (CLSI). In kind it is cell-based. As to conditions: Enterococcus faecium, E417HM965, Table 1; TSB; read-out: MIC.
Series [12] concerns Enterococcus faecium Patient #2-1 - NR-31909. The experiment in a line: MIC, broth microdilution (CLSI). The class given is cell-based. The settings on record: Enterococcus faecium, TSB, read-out: MIC.
Series [13] relates to Enterococcus fecalis Strain SF 24397 NR31970. The series can be described thus: MIC, broth microdilution (CLSI). In kind it is cell-based. The settings on record: Enterococcus, TSB, read-out: MIC.
Series [14] deals with Mutant-5 of Enterococcus fecalis NR 31975. The series can be described thus: microbe, parasite or virus in culture. In kind it is cell-based.
Series [15] has as its system Mutant-13 of Enterococcus fecalis NR 31975. The series can be described thus: microbe, parasite or virus in culture. In kind it is cell-based.
Series [16] deals with Mutant-4 of Enterococcus fecalis NR 31975. The series can be described thus: microbe, parasite or virus in culture. In kind it is cell-based.

As to `CC(C)=CC(=O)Nc1nnc(S(N)(=O)=O)s1` [CAI0016, 3-Methyl-N-(5-sulfamoyl-1,3,4-thiadiazol-2-yl)but-2-enamide], the MIC turned out to be 8 µg/mL (≈ 30.5 µM) in series [1]; 8 µg/mL (≈ 30.5 µM) in series [2]; 4 µg/mL (≈ 15.2 µM) in [3]; 4 µg/mL (≈ 15.2 µM) in series [4]; 0.5 µg/mL (≈ 1.91 µM) in series [5] (Table 1); 0.5 µg/mL (≈ 1.91 µM) in [5] (Table 7). The MIC in series [6] (Table 1) was 0.5 µg/mL (≈ 1.91 µM); in [6] (Table 7) it was 0.5 µg/mL (≈ 1.91 µM); in [7] (Table 1), 1 µg/mL (≈ 3.81 µM); in series [7] (Table 7) it was 0.5 µg/mL (≈ 1.91 µM); in series [8], 16 µg/mL (≈ 61 µM); in [9] it was 4 µg/mL (≈ 15.2 µM). Also, the MIC in [11] was determined as 0.25 µg/mL (≈ 0.953 µM); in [12] (Table 1), 0.5 µg/mL (≈ 1.91 µM); in series [12] (Table 7), 0.25 µg/mL (≈ 0.953 µM); in series [13] (Table 1) it was 0.5 µg/mL (≈ 1.91 µM); in [13] (Table 7), 0.25 µg/mL (≈ 0.953 µM); in series [14], 4 µg/mL (≈ 15.2 µM). Moreover, the MIC was 4 µg/mL (≈ 15.2 µM) in [15] and 8 µg/mL (≈ 30.5 µM) in series [16]. For the same compound, the “toxicity to Caco-2 cells (percent viable cells, MTS)” value in series [10] is given as “non-toxic”.
